Laboratory results published in US20150191445A1, “ACYL-HYDRAZONE AND OXADIAZOLE COMPOUNDS, PHARMACEUTICAL COMPOSITIONS CONTAINING THE SAME AND USES THEREOF” (Universidade Federal de Santa Catarina, priority 2011, published 2015).

How the values were obtained:
Assay type in all cases: cell-based, human
[1] = test system: cell cycle regulatory proteins in Jurkat cells; assay: Western blot of cell cycle regulatory proteins; conditions: 125 nM
Procedure: (§1) The cells were incubated for 12 hours in fresh medium before experiments. Two million cells from the Jurkat line were incubated for 12 h, 18 h, 24 h and 30 h in RPMI-640 medium supplemented with 10% Fetal Bovine Serum (FCS) and 0.2% Penicillin/Streptomycin (PS) with a concentration of 125 nM of compound 07 or DMSO (vehicle).
The cells treated or not with compound 07 were lysed in buffer containing 50 mM Tris pH 7.7, 150 mM NaCl, 5 mM EDTA, 1% Sigma phosphatase inhibitor cocktail I, 1% Sigma phosphatase inhibitor cocktail II, 1% Sigma protease inhibitor cocktail II, 1% Igepal, 0.1% SDS, 0.5% sodium deoxycholate and 1 mM PMSF. After incubation for 30 min on ice and 3 cycles of freezing and thawing, extracts were centrifuged at 10,000 rpm for 20 min at 4° C. to sediment membrane debris. Of the supernatant, we proceeded with protein quantification by Bradford reagent (Biorad). The samples were boiled for 5 min with prior addition of β-mercaptoethanol and 100 μg of protein were subjected to acrylamide:bisacrylamide gel electrophoresis (39:1) 10% with SDS and electrotransferred to 0.45 μm nitrocellulose membrane (Schleicher & Schuell). […]

Jurkat cells [2] = assay: MTT cytotoxicity assay, Jurkat cell line; conditions: 48 h of treatment, read-out: IC50 T (Jurkat)
Procedure: (§2) All compounds were resuspended in DMSO at stock concentration of 20 mM and stored at −20° C. For cytotoxicity testing, the dilutions from the stock solutions were made in culture medium (RPMI-1640 plus 10% of fetal bovine serum, 100 IU/ml penicillin and 100 µg/mL Streptomycin), immediately before being discharged to the cells.
(§3) The REH and Jurkat cell lines were maintained in
(§4) RPMI-1640 medium with 10% FBS (fetal bovine serum), 100 IU/mL penicillin, 100 µg/mL streptomycin and incubated at 37° C. and 5% CO2. Cytotoxicity assays were performed according to the method described in the literature (Pieters, R.; et al. In vitro drug sensitivity of cells from children with leukemia using the MTT assay with improved culture conditions. Blood, 1990, 76, 2327-2336; Pieters, R.; et al. Relation of cellular drug resistance to long-term clinical outcome in childhood acute lymphoblastic leukaemia. Lancet, 1991, 338, 399-403 e Kaspers, G. J.; et al. In vitro cellular drug resistance and prognosis in newly diagnosed childhood acute lymphoblastic leukemia. Blood, 1997, 90, 2723). Cells were resuspended at a concentration of 3.75 10^5 cells/mL in culture medium as described. Eighty microliters of this suspension were seeded into plates with 96 round-bottom wells, containing 20 microliters of different concentrations of compound or vehicle alone. Each treatment was done in triplicate. After 48 hours of incubation at 37° C. and 5% CO2, 20 μL of MTT solution was added (5 mg/mL of 1x PBS), followed by further incubation for 4 hours and 30 minutes at 37° C. and 5% CO2. During these 4 hours and 30 minutes, MTT (yellowish) is metabolized to formazan salt (bluish in color) by living cells. After this, 100 μL sodium dodecyl sulphate (SDS) 10%+0.1M of HCl were added to dissolve the formazan crystals. After incubating overnight, absorbance reading at 570 nm was carried out. The percentage of cells surviving the treatment were calculated relative to the number of surviving cells in the medium without addition of the compounds in question (“negative control”).
(§5) c) Determination of IC: IC50 is defined as the concentration of a compound at which 50% of maximal inhibition is obtained. After reading the absorbance, survival curves were constructed and the values of IC50 were obtained with the GraphPad Prism software.

REH cells = assay: MTT cytotoxicity assay, REH cell line; conditions: 48 h of treatment
Procedure: as §2, §3, §4, §5

[3] = test system: Bone marrow cells from healthy donors; assay: Colony formation assay of hematopoietic cells; conditions: for Colony formation BFU-E / Colony formation CFU-E / Colony formation CFU-G / Colony formation CFU-GEMM / Colony formation CFU-GM / Colony formation CFU-M: two weeks of culture
Procedure: Cytotoxicity of compound 07 was also evaluated with a colony formation assay of hematopoietic cells. A “HSC-CFU complete with Epo” kit from Miltenyi (Cat #130-091-280) was used following the manufacturer's recommendations. Bone marrow cells from healthy donors were cultured in semi-solid methylcellulose medium supplemented with bovine fetal serum, bovine serum albumin, different growth factors (GM-CSF, G-CSF, SCF, IL-3, IL-6, Epo) and compound 07, whose action on hematopoiesis was evaluated. After two weeks of culture at 37° C. and 5% CO2, an assessment of the number of granulocytes (CFU-G), macrophage (CFU-M), granulocyte/macrophage (CFU-GM), erythroid (BFU-E and CFU-E) and mixed (CFU-GEMM) colonies was carried out.

Jurkat cells [4] = assay: Cell cycle analysis, propidium iodide flow cytometry; conditions: 125 nM, 18 h
Procedure: as §1
The cells treated or not with compound 07 were fixed in 70% ethanol for 2 hours, washed in PBS and incubated for 15 min at 37° C. in 1 mL of Triton X-100 0.1% 0.2 mg/mL of RNAse and 20 μg/mL propidium iodide in PBS. 20,000 events were collected on FACSCalibur flow cytometer with red fluorescence quantification, excluding any cell aggregates by the standard width vs. red fluorescence peak area. The data deconvolution to obtain the percentage of cells in each phase of cell cycle was performed using ModFit software v2.0.

Compound: COc1cc(C(=O)NN=Cc2cccc3ccccc23)cc(OC)c1OC [Compound 07]
- expression of CDKs [1]: repression of the expression of CDK4 and to a lesser extent also of CDK6, shorter isoform of CDK2 and larger isoform of CDK9
- phosphorylation of Chk2 ([1]; after 12 hours of treatment): possible to detect the phosphorylation of Chk2 in Thr68
- IC50 (Jurkat cells [2]): 15.7 nM
- IC50 (REH cells): 25.4 nM
- Colony formation BFU-E ([3]; 2 nM): 39%
- Colony formation CFU-E ([3]; 2 nM): 23%
- Colony formation CFU-G ([3]; 2 nM): 11%
- Colony formation CFU-GEMM ([3]; 2 nM): 1%
- Colony formation CFU-GM ([3]; 2 nM): 52%
- Colony formation CFU-M ([3]; 2 nM): 17%
- effect on erythrocyte formation ([3]; 20 nM): inhibitory activity on erythrocyte formation comparable to a PI3K inhibitor
- effect on granulocytes and macrophages ([3]; 20 nM): inhibitory activity against granulocytes and macrophages, although low in intensity when compared to a F13K inhibitor
- Colony formation BFU-E ([3]; 20 nM): 26%
- Colony formation CFU-E ([3]; 20 nM): 11%
- Colony formation CFU-G ([3]; 20 nM): 14%
- Colony formation CFU-GEMM ([3]; 20 nM): 2%
- Colony formation CFU-GM ([3]; 20 nM): 27%
- Colony formation CFU-M ([3]; 20 nM): 25%
- effect on hematopoiesis ([3]; 200 nM): completely inhibited hematopoiesis
- Colony formation BFU-E ([3]; 200 nM): 0%
- Colony formation CFU-E ([3]; 200 nM): 0%
- Colony formation CFU-G ([3]; 200 nM): 0%
- Colony formation CFU-GEMM ([3]; 200 nM): 0%
- Colony formation CFU-GM ([3]; 200 nM): 0%
- Colony formation CFU-M ([3]; 200 nM): 0%
- effect on cell cycle (Jurkat cells [4]): cell cycle arrest in G2/M
